Earlier results, collected in paper PMC6462165 (International Journal of Nanomedicine, 2019).

Tested on: endothelial cell proliferation
Conditions: inhibition of endothelial cell proliferation; cited from earlier work

IVRRADRAAVP [ES2]
activity relative to the ES sequence: about three times more active than the ES sequence
